Source: ChEMBL document CHEMBL1201862, “PubChem BioAssay data set” (2004)
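Results reflect a 48-hour exposure of cells in 96-well plates to compound at five concentrations. At the GI50, growth is halved.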 Activity calls are given as the source filed them. Cut-off read from the data, not from the text of the source: active = GI50 up to about 1.1 µM and inactive = higher.

Key:
Assay in all cases: NCI-60 cell line screen, 48 h
BT-549 = test system: BT-549
SN12C = test system: SN12C
ACHN = test system: ACHN
EKVX = test system: EKVX
NCI-H23 = test system: NCI-H23
NCI-H460 = test system: NCI-H460
SF-268 = test system: SF-268
RXF 393 = test system: RXF 393
HT-29 = test system: HT-29
NCI-H226 = test system: NCI-H226
SNB-75 = test system: SNB-75
HCT-15 = test system: HCT-15
DU-145 = test system: DU-145
A498 = test system: A498
CAKI-1 = test system: CAKI-1
SF-295 = test system: SF-295
Malme-3M = test system: Malme-3M
NCI-H522 = test system: NCI-H522
COLO 205 = test system: COLO 205
SNB-19 = test system: SNB-19
UACC-62 = test system: UACC-62
U-251 = test system: U-251
KM12 = test system: KM12
M14 = test system: M14
NCI/ADR-RES = test system: NCI/ADR-RES
HCC 2998 = test system: HCC 2998
RPMI-8226 = test system: RPMI-8226
UACC-257 = test system: UACC-257
MDA-N = test system: MDA-N
IGROV-1 = test system: IGROV-1
OVCAR-8 = test system: OVCAR-8
MOLT-4 = test system: MOLT-4
PC-3 = test system: PC-3
HOP-62 = test system: HOP-62
HCT-116 = test system: HCT-116
OVCAR-4 = test system: OVCAR-4
TK-10 = test system: TK-10
MDA-MB-231 = test system: MDA-MB-231
UO-31 = test system: UO-31
MCF7 = test system: MCF7
SK-MEL-5 = test system: SK-MEL-5
MDA-MB-435 = test system: MDA-MB-435
SK-MEL-2 = test system: SK-MEL-2
K562 = test system: K562
OVCAR-3 = test system: OVCAR-3
SF-539 = test system: SF-539
A549 = test system: A549
SK-MEL-28 = test system: SK-MEL-28
SK-OV-3 = test system: SK-OV-3
LOX IMVI = test system: LOX IMVI
SR = test system: SR
786-0 = test system: 786-0
Hs-578T = test system: Hs-578T
T47D = test system: T47D
OVCAR-5 = test system: OVCAR-5

SMILES: O=C([C@H](O)[C@@H](O)c1ccc(Br)cc1)C12CC3CC(CC(C3)C1)C2
- GI50 (BT-549): 8.73 µM (inactive)
- GI50 (SN12C): 17.9 µM (inactive)
- GI50 (ACHN): 16.3 µM (inactive)
- GI50 (EKVX): 32.4 µM (inactive)
- GI50 (NCI-H23): 8.45 µM (inactive)
- GI50 (NCI-H460): 3.74 µM (inactive)
- GI50 (SF-268): 11.6 µM (inactive)
- GI50 (RXF 393): 52.7 µM (inactive)
- GI50 (HT-29): 12.7 µM (inactive)
- GI50 (NCI-H226): > 49.8 µM (inactive)
- GI50 (SNB-75): 2.93 µM (inactive)
- GI50 (HCT-15): 13.6 µM
- GI50 (DU-145): 9.68 µM (inactive)
- GI50 (A498): 11.6 µM (inactive)
- GI50 (CAKI-1): 14.9 µM (inactive)
- GI50 (SF-295): 13 µM (inactive)
- GI50 (Malme-3M): 13.9 µM (inactive)
- GI50 (NCI-H522): 10.8 µM (inactive)
- GI50 (COLO 205): > 20.2 µM (inactive)
- GI50 (SNB-19): 19.2 µM (inactive)
- GI50 (UACC-62): 7.82 µM (inactive)
- GI50 (U-251): 7.18 µM (inactive)
- GI50 (KM12): 13.8 µM (inactive)
- GI50 (M14): 13.6 µM (inactive)
- GI50 (NCI/ADR-RES): 24.9 µM (inactive)
- GI50 (HCC 2998): > 21.3 µM (inactive)
- GI50 (RPMI-8226): 14.3 µM (inactive)
- GI50 (UACC-257): 9.59 µM (inactive)
- GI50 (MDA-N): 11.1 µM (inactive)
- GI50 (IGROV-1): 4.48 µM (inactive)
- GI50 (OVCAR-8): 42.8 µM (inactive)
- GI50 (MOLT-4): 14.4 µM (inactive)
- GI50 (PC-3): 6.58 µM (inactive)
- GI50 (HOP-62): 7.6 µM (inactive)
- GI50 (HCT-116): 10.4 µM (inactive)
- GI50 (OVCAR-4): 19.3 µM (inactive)
- GI50 (TK-10): 14 µM (inactive)
- GI50 (MDA-MB-231): 10.5 µM (inactive)
- GI50 (UO-31): 23.7 µM (inactive)
- GI50 (MCF7): 7.31 µM (inactive)
- GI50 (SK-MEL-5): 23.6 µM (inactive)
- GI50 (MDA-MB-435): 11.6 µM (inactive)
- GI50 (SK-MEL-2): 16.3 µM (inactive)
- GI50 (K562): 31.5 µM (inactive)
- GI50 (OVCAR-3): 9.25 µM (inactive)
- GI50 (SF-539): 8.91 µM (inactive)
- GI50 (A549): 9.38 µM (inactive)
- GI50 (SK-MEL-28): 24.7 µM (inactive)
- GI50 (SK-OV-3): 28.4 µM (inactive)
- GI50 (LOX IMVI): 31.1 µM (inactive)
- GI50 (SR): 34.8 µM (inactive)
- GI50 (786-0): 9.53 µM (inactive)
- GI50 (Hs-578T): > 39.1 µM (inactive)
- GI50 (T47D): 6.56 µM (inactive)
- GI50 (OVCAR-5): 39.4 µM (inactive)
